Test results as given in BindingDB's records for doi:10.7270/Q2M32T6M (Vanderbilt Screening Center for GPCRs, Ion Channels and …, 2009).
Non-standard residues stand in square brackets, D forms with d. Residues, ends and D or L forms follow the SMILES beside them. ξ: configuration not given here. *: point of attachment. ξF = NC(Cc1ccccc1)C(=O)O; Cbz = O=C(OCc1ccccc1)*

Each compound was assayed against T1, Solute carrier family 12 member 5 (Homo sapiens, UniProt Q9H2X9) (assay: KCC2 modulator potency by thallium flux, dose response, cell-based, HEK293 KCC2, FluoZin-2 fluorescence (AID 1736)). Details: not given.
T1 sequence (Q9H2X9 whole entry): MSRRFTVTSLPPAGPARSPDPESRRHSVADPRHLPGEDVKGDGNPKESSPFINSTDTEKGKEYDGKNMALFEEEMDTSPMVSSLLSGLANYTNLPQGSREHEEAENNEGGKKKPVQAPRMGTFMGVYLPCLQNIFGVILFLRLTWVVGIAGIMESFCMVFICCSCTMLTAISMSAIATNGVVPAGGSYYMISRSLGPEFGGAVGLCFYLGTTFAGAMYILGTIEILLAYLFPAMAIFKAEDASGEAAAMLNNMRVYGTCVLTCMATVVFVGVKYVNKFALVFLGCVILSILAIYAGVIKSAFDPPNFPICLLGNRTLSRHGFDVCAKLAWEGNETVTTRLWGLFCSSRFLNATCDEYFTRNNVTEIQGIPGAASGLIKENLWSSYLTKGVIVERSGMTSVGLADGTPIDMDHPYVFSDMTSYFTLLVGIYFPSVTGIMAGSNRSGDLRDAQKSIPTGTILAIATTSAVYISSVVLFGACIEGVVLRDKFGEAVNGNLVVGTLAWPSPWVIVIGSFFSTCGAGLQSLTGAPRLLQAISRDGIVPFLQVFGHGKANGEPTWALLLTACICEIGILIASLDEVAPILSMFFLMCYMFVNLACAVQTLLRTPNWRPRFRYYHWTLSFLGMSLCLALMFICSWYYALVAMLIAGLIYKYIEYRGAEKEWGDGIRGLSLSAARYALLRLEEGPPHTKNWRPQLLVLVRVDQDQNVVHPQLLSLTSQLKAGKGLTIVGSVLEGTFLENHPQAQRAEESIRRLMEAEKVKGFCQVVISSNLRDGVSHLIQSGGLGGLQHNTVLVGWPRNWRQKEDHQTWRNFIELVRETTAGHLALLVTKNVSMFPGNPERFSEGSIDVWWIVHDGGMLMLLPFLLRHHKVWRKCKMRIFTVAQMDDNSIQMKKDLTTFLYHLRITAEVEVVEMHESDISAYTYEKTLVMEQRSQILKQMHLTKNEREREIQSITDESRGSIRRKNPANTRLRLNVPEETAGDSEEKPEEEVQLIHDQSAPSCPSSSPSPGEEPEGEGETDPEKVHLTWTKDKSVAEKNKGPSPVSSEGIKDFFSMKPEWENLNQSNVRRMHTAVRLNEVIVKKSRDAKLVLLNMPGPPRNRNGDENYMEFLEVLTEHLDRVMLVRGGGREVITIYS

Row | Compound | EC50 [µM]
1 | N#CC(C(=O)c1cccc(F)c1)c1nc2ccccc2s1 (centres undefined) [(2Z)-2-(3H-1,3-benzothiazol-2-ylidene)-3-(3-fluorophenyl)-3-keto-propionitrile] | 7.39
2 | O=C(NCCOc1ccccc1F)c1ccccc1SCc1ccc(F)cc1 [2-[(4-fluorobenzyl)thio]-N-[2-(2-fluorophenoxy)ethyl]benzamide] | 0.717
3 | O=C(O)c1cc([N+](=O)[O-])ccc1NCc1ccccc1 [2-(benzylamino)-5-nitro-benzoic acid] | 1490
4 | Sc1nnc(Cc2c[nH]c3ccccc23)o1 [5-(1H-indol-3-ylmethyl)-1,3,4-oxadiazole-2(3H)-thione] | 4.45
5 | O=C(NCCCCc1ccccc1)C1CC(c2ccccc2[N+](=O)[O-])=NO1 (centres undefined) [3-(2-nitrophenyl)-N-(4-phenylbutyl)-2-isoxazoline-5-carboxamide] | 5.52
6 | Cc1ccc(C)c(C(=O)NC(C)CCc2ccccc2)c1 (centres undefined) [2,5-dimethyl-N-(1-methyl-3-phenyl-propyl)benzamide] | 7.74
7 | CC(C)NC(=S)NNC1=c2cc(C(C)C)ccc2=NC1=O [SMR000242097] | 5.86
8 | O=S(=O)(NCc1ccccc1)c1ccc(Cl)c(S(=O)(=O)NCc2ccccc2)c1 [1-N,3-N-dibenzyl-4-chlorobenzene-1,3-disulfonamide] | 1.7
9 | O=C(C1CCN(c2nc3ccc(Br)cc3s2)CC1)N1CCC2(CC1)OCCO2 [8-{[1-(6-bromo-1,3-benzothiazol-2-yl)piperidin-4-yl]carbonyl}-1,4-dioxa-8-azaspiro[4.5]decane] | 5.25
10 | S=C(NCc1ccccc1Cl)Nc1ccccc1Cl [1-(2-chlorobenzyl)-3-(2-chlorophenyl)thiourea] | 5.74
11 | Sc1nnc(CNc2cccc(Cl)c2)o1 [5-[(3-chloroanilino)methyl]-3H-1,3,4-oxadiazole-2-thione] | 3.77
12 | O=C(C1CCN(S(=O)(=O)c2cccs2)CC1)N1CCc2ccccc2C1 [3,4-dihydro-1H-isoquinolin-2-yl-(1-thiophen-2-ylsulfonyl-4-piperidinyl)methanone] | 2650
13 | CC1Cc2ccccc2N1C(=O)/C=C/c1cccc(F)c1 (centres undefined) [(E)-3-(3-fluorophenyl)-1-(2-methyl-2,3-dihydroindol-1-yl)-2-propen-1-one] | 192
14 | CCOC(=O)CNC(=O)C(Cc1ccccc1)NC(=O)OCc1ccccc1 (centres undefined) [2-[[1-oxo-3-phenyl-2-(phenylmethoxycarbonylamino)propyl]amino]acetic acid ethyl ester] (Cbz-[ξF]-Gly-OEt) | 2.16
15 | N#Cc1nc(-c2ccco2)oc1N1CCN(Cc2ccccc2)CC1 [2-(2-furanyl)-5-[4-(phenylmethyl)-1-piperazinyl]-4-oxazolecarbonitrile] | 12
16 | CCN(CC)S(=O)(=O)c1ccc(NC(=O)CSc2ncnc3ccccc23)cc1 [MLS000393282] | 3
17 | COc1cc(OC)c(C2=NOC(C(=O)N3CCc4ccccc4C3)C2)cc1Cl (centres undefined) [2-{[3-(5-chloro-2,4-dimethoxyphenyl)-4,5-dihydro-5-isoxazolyl]carbonyl}-1,2,3,4-tetrahydroisoquinoline] | 5.55
18 | N#Cc1nc(Cc2cccc3ccccc23)oc1N1CCOCC1 [5-(4-morpholinyl)-2-(1-naphthalenylmethyl)-4-oxazolecarbonitrile] | 2.19
19 | Sc1nnc(COc2ccc(Cl)cc2)o1 [5-(4-Chloro-phenoxymethyl)-3H-[1,3,4]oxadiazole-2-thione] | 3.12
20 | Cc1oc(-c2ccccc2)nc1C[S+]([O-])CC(=O)N1CCc2ccccc2C1 (centres undefined) [1-(3,4-dihydro-1H-isoquinolin-2-yl)-2-[(5-methyl-2-phenyl-1,3-oxazol-4-yl)methylsulfinyl]ethanone] | 3.68
21 | CCn1c(CCNC(=O)c2cccs2)nnc1SCC(=O)Nc1nc(-c2ccccc2)cs1 [MLS000548611] | 19.1

Row | Compound | EC50 [µM]
22 | NC(=S)NN=C1C(=O)N(Cc2ccc(F)cc2)c2ccccc21 [1-[(Z)-[1-[(4-fluorophenyl)methyl]-2-oxidanylidene-indol-3-ylidene]amino]thiourea] | 7.98
23 | CC1CCN(C(=O)CSc2ccc(-c3ccc(F)cc3)nn2)CC1 [2-[6-(4-Fluoro-phenyl)-pyridazin-3-ylsulfanyl]-1-(4-methyl-piperidin-1-yl)-ethanone] | 4.35
24 | CCn1nnnc1SCC(=O)Nc1nc(-c2cccs2)cs1 [2-(1-Ethyl-1H-tetrazol-5-ylsulfanyl)-N-(4-thiophen-2-yl-thiazol-2-yl)-acetamide] | 3.74
25 | COc1cc(C(=S)N2CCOCC2)ccc1OC(=O)Cc1ccc(F)cc1 [(2-methoxy-4-morpholin-4-ylcarbothioyl-phenyl) 2-(4-fluorophenyl)ethanoate] | 8.68
26 | O=C(O)CCn1c(SCc2cccc3ccccc23)nc2ccccc21 [3-[2-(1-naphthalenylmethylthio)-1-benzimidazolyl]propanoic acid] | 0.677
27 | CCn1c(=O)n(CC)c2cc(S(=O)(=O)N3CCC(c4ccccc4)CC3)ccc21 [1,3-diethyl-5-(4-phenylpiperidin-1-yl)sulfonyl-benzimidazol-2-one] | 13.2
28 | O=C(NNc1nc(-c2ccc(F)cc2)cs1)c1ccccc1 [MLS000763429] | 0.928
29 | O=C(Cn1cnc2c(nnn2-c2ccccc2)c1=O)NCCc1ccccc1 [2-(7-keto-3-phenyl-triazolo[4,5-d]pyrimidin-6-yl)-N-phenethyl-acetamide] | 2.52
30 | Cc1[nH]c2ccccc2c1Cc1nnc(S)o1 | 0.744
31 | O=C(CSc1ccccc1C(=O)NCc1ccccc1)NC1CCCCCCC1 [2-[2-(cyclooctylamino)-2-oxidanylidene-ethyl]sulfanyl-N-(phenylmethyl)benzamide] | 1.65
32 | Cc1ccc2c(c1)nnn2C1CCN(S(=O)(=O)c2cccc(S(=O)(=O)N(C)C)c2)CC1 [MLS000033642] | 6.91
33 | Cc1ccccc1-c1nc(C[S+]([O-])CC(=O)NCc2ccccc2)c(C)o1 (centres undefined) [2-[[5-methyl-2-(2-methylphenyl)-1,3-oxazol-4-yl]methylsulfinyl]-N-(phenylmethyl)ethanamide] | 8.09
34 | COc1cc(C(=S)N2CCOCC2)cc(OC)c1OC(=O)Cc1ccccc1 [(2,6-dimethoxy-4-morpholin-4-ylcarbothioyl-phenyl) 2-phenylethanoate] | 0.408
35 | CCOC(=O)c1sc(Nc2nc3c(OC)cccc3s2)nc1C [SMR000027213] | 23.4
36 | Cc1ccc(CSCCNC(=O)c2ccc(C)cc2)cc1 [4-methyl-N-[2-[(4-methylbenzyl)thio]ethyl]benzamide] | 15.4
37 | COc1cc(C=NN(C)c2ccccc2)ccc1O | 2.75
38 | O=[N+]([O-])c1ccccc1C=C[CH+][N-]n1c(-c2ccc(Cl)cc2)n[nH]c1=S [MLS000555506] | 15.5
39 | COc1cccc(Nc2nnc(S)s2)c1 [5-(3-methoxyanilino)-3H-1,3,4-thiadiazole-2-thione] | 3.43
40 | O=C(CC(Cc1ccccc1)c1ccco1)NC1CCCCC1 (centres undefined) [MLS000556612] | 3.03
41 | Cc1[nH]c2ccccc2c1SCC(=O)N1CCN(c2ccccc2)CC1 [2-[(2-methyl-1H-indol-3-yl)thio]-1-(4-phenyl-1-piperazinyl)ethanone] | 5.46

Same assay, conditions: inactive by the depositor's call

Row | Compound | EC50 [µM]
42 | COc1cc(OC)c(C(=O)/C=C/c2ccccc2)c(O)c1O [(E)-1-(2,3-dihydroxy-4,6-dimethoxy-phenyl)-3-phenyl-prop-2-en-1-one] | 486
43 | Cc1nc(SCC(=O)N2CCc3ccccc3C2)c2c(C)c(C)sc2n1 [1-(3,4-Dihydro-1H-isoquinolin-2-yl)-2-(2,5,6-trimethyl-thieno[2,3-d]pyrimidin-4-ylsulfanyl)-ethanone] | 14.7
44 | CC(C)CNC(=O)c1ccc(COc2ccc(Cl)cc2Cl)o1 [5-[(2,4-dichlorophenoxy)methyl]-N-(2-methylpropyl)-2-furancarboxamide] | 10.5
45 | N#Cc1nc(COc2ccccc2F)oc1NCc1ccc(F)cc1 [2-[(2-fluoranylphenoxy)methyl]-5-[(4-fluorophenyl)methylamino]-1,3-oxazole-4-carbonitrile] | 1.86
46 | COc1ccc(-c2nnc(-c3ccc(OCC(C)C)cc3)o2)cc1 [2-(4-Isobutoxy-phenyl)-5-(4-methoxy-phenyl)-[1,3,4]oxadiazole] | 0.00127
47 | N#C/C(=C\c1cn(-c2ccccc2)nc1-c1cccnc1)c1nnc2n1CCCCC2 [(E)-3-(1-phenyl-3-pyridin-3-yl-pyrazol-4-yl)-2-(6,7,8,9-tetrahydro-5H-[1,2,4]triazolo[4,3-a]azepin-3-yl)prop-2-enenitrile] | 1.45
48 | O=C(NCCCCc1ccccc1)C1CC(c2ccccc2C(F)(F)F)=NO1 (centres undefined) [MLS000561910] | 40.9
49 | CCOC(=S)N=C(NS(=O)(=O)c1ccc(C)cc1)c1ccccc1 [MLS000579749] | 24.9
